Entries after “also recorded” stand apart in the source; their conditions may differ.
Legend:
Type in all cases: cell-based, human
iPSC-RPE [1] = assay: Trans-epithelial electrical resistance (TER), tight junction integrity; settings: fully mature iPSC-RPE; for TER resistance: minimum threshold 400 Ωcm^2, DMSO around 1100
Procedure: Different techniques were used to study RPE morphologic features.
At this point the trans-epithelial electrical resistance (TER) was assayed to confirm the quality of differentiation and examine the effect of drugs on tight junction integrity. The minimum threshold of 400 Ωcm^2 for epithelial resistance per unit area is used to determine good batches of differentiation.
Trans-epithelial electrical resistance (TER) is a measure of the tightness of the monolayer. The tighter the monolayer, the healthier are the cells in the monolayer. A cutoff of 400 ohm*cm^2 was used to exclude cells with low TER. […] The range specifies 90% of the data.

iPSC-RPE [2] = assay: Shape metrics (cell area) of drug-treated fully mature iPSC-RPE on transwells; settings: treated from D21 until fully mature; for iPSC-RPE area: transwells; for iPSC-RPE cell size compared with human RPE populations: reference P1 macular, P3 peripheral
Source text: Segmentation Using Convolutional Network: A Convolutional Neural Network (CNN) algorithm was used to recognize RPE cell borders from images of samples labeled by immunofluorescence. The algorithm generates a binary mask of segmented RPE borders; and this output was manually corrected to provide the “right answer” on which the algorithm would learn. Once trained, the CNN algorithm was fed with images of fluorescently labeled RPE cells and the binary mask images that were generated become the input for the REShAPE software for cell shape analysis (FIG. 3).
Morphometric Analysis Using REShAPE: The binary segmentation produced by the CNN algorithm was transferred to REShAPE for cell shape analysis. REShAPE (Retinal Epithelium Shape and Pigment Evaluator) is a Fiji plugin for image analysis. For every cell in a field of view that has been successfully segmented, REShAPE provide quantification of more than 25 different shape metrics. The raw data was stored in a spreadsheet to allow for statistical analysis. In addition, the software created images of segmented cells for every metric analyzed, where every cell is color-coded according to the raw values (FIG. 4). The color-coded images display the location of the cells analyzed. The shape metrics were analyzed with the software to give measurements of cell dimensions, such as area and perimeter, measurements of elongation, such as length of major and minor axis, and measurements of cell regularity, such as hexagonality score and number of neighbors. The analysis was performed in pixel units or μm, as far as the pixel to μm conversion is provided. The analysis of data and the graphs have been done using R software (“R Core Team (2018). R: A language and environment for statistical computing. R Foundation for Statistical Computing, Vienna, Austria. URL https://www.R-project.org/”). The R packages “plyr” and “ggplot2” have been use for data handling and plotting respectively (Wickham, 2009, 2011). The Dunnett's test, a method for post hoc pairwise multiple comparisons, was used to compute statistical analysis by comparing several treatment groups to control groups. A 95% family-wise confidence level has been used. […] Shapiro-Wilk's test and one-way ANOVA were carried out using the R package “dplyr” (Wickham et al., dplyr: A Grammar of Data Manipulation. Retrieved from https://cran.r-project.org/package=dplyr, 2019), while Q-Q plots were drawn using the R package “ggpubr” (Kassambara, ggpubr: “ggplot2” Based Publication Ready Plots. Retrieved from cran.r-project.org/package=ggpubr, 2020). […]
Subsequently, shape metrics were analyzed to confirm the effect of the drugs on cell areas. […]

iPSC-RPE [3] = assay: Brightfield imaging of RPE pigmentation; settings: compared to DMSO-treated iPSC-RPE, AGN 193109 0.2 μM, endo-IWR-1 4 uM
Procedure: Brightfield imaging was used to determine RPE pigmentation defects, while hematoxylin and eosin (H&E) staining was valuable to inspect gross morphologic alterations of the monolayer. A section of transwell membrane was cut and mounted on a glass slide for brightfield imaging. Pigmentation levels were preserved after ENDO-1-IWR and AGN 193109 treatments as compared to DMSO-treated iPSC-RPE.
AGN 193109 was used at 0.2 μM and endo-IWR-1 at 4 uM. Both drugs were dissolved in DMSO, so that the final concentration of DMSO was not more than 0.1%. The final concentration of DMSO control was 0.1%. The compounds were added in RPE maturation medium until cells were mature. Gross cell morphology was also analyzed (FIGS. 20B, 20D, and 20F, left image) to detect possible abnormalities. Fine intracellular structures were examined for alterations with transmission electron microscopy (TEM, FIGS. 20B, 20D, and 20F, right image).

iPSC-RPE [4] = assay: Testing different concentrations of AGN 193109 and endo-IWR-1 to reproduce macular (P1), central (P2) and peripheral (P3) cells
Procedure: FIG. 13. Testing different concentrations of AGN 193109 and endo-IWR-1 to reproduce macular (P1), central (P2) and peripheral (P3) cells. A range of concentrations of AGN 193109 and endo-IWR-1 were tested that could be used to reproduce macular, central and peripheral RPE populations (labeled P1, P2 and P3, respectively). Population 1 (P1, macular cells) can be reproduced with […] of AGN 193109. Population 3 (P3, peripheral) can be reproduced with 1 mM-4 mM of endo-IWR-1. A gradient of AGN 193109 and endo-IWR-1 could be used to replicate human RPE population 2 (P2, central)—central RPE cells. In one example, this can be reproduced with 25 nM-50 nM of AGN 193109 and 0.1 mM-0.5 mM of endo-IWR-1. Boxplots relative to DMSO, P1, P2 and P3 are plotted on the left side of the graph as a reference for cell size comparison. Five concentrations were tested for AGN 193109 and endo-IWR-1.

iPSC-RPE cells = assay: Phagocytosis test with labelled bovine outer segments, flow cytometry; settings: 4 hours incubation with outer segments; One-way ANOVA showed no difference
Procedure: iPSC-RPE cells were provided purified bovine outer segment (mostly rod photoreceptors) to phagocytose. The outer segments were labelled with a dye that fluoresce when the outer segments are phagocytosed. RPE cells were incubated for 4 hours with outer segments and then analyzed with flow cytometry to measure outer segment ingestion or put back in the incubator for 20 hours before performing flow cytometry to measure outer segment digestion.

effect on epithelial barrier / tight junction integrity (iPSC-RPE [1])	pigmentation levels (iPSC-RPE [3]; listed as Endo-IWR-1)	pigmentation levels (iPSC-RPE [3]; listed as endo-IWR-1)	SMILES	TER resistance (iPSC-RPE [1])	iPSC-RPE area (iPSC-RPE [2])	iPSC-RPE cell size compared with human RPE populations (iPSC-RPE [2])	pigmentation levels (iPSC-RPE [3])	concentration that reproduces population 2 (P2, central) (iPSC-RPE [4]; AGN 193109 combined with endo-IWR-1)	concentration used to reproduce P1 (macular) (iPSC-RPE [4]; Table 6)	outer segment ingestion (iPSC-RPE cells)	concentration used to reproduce P3 (peripheral) (iPSC-RPE [4]; Table 6)	concentration used to reproduce P2 (central) (iPSC-RPE [4]; Table 6, ENDO-1-IWR combined with AGN 193109)
maintained tight junction integrity			Cc1ccc(C2=CCC(C)(C)c3ccc(C#Cc4ccc(C(=O)O)cc4)cc32)cc1 [AGN 193109, 4-[2-[5,6-Dihydro-5,5-dimethyl-8-(4-methylphenyl)-2-naphthalenyl]ethynyl]-benzoic acid]	~1600 Ωcm^2	161.8±149.7 μm^2	comparable to the dimension of macular RPE population (P1); also recorded: shifts iPSC-RPE cell sizes toward macular RPE population (P1); also recorded: able to reproduce the cellular size of macular population (P1) and peripheral population (P3) respectively	preserved; also recorded: did not alter pigmentation levels	25 to 50 nM	0.1 to 0.2 µM			
maintained tight junction integrity	did not alter pigmentation levels	did not alter pigmentation levels	O=C(Nc1cccc2cccnc12)c1ccc(N2C(=O)C3C4C=CC(C4)C3C2=O)cc1 (stereo not drawn) [ENDO-1-IWR, 4-(1,3,3a,4,7,7a-Hexahydro-1,3-dioxo-4,7-methano-2H-isoindol-2-yl)-N-8-quinolinyl-Benzamide]	~1200 Ωcm^2	251.8±218.4 μm^2	comparable to cells of peripheral RPE population P3; also recorded: increases cell sizes up to the dimensions of the peripheral RPE population P3; also recorded: able to reproduce the cellular size of macular population (P1) and peripheral population (P3) respectively; also recorded: increases RPE cell size to match human peripheral RPE population P3	preserved			ingest (peripheral cells) more outer segments	1 to 4 µM	0.1 to 0.2 µM

Reference: US20240261474A1, “BIODEGRADABLE TISSUE SCAFFOLD WITH SECONDARY MATRIX TO HOST WEAKLY ADHERENT CELLS” (THE U.S.A., as represented by the Secretary, Department of …, priority 2021, published 2024)
